Experimental data: patent US20170065564A1, “BIS-CYCLIC GUANIDINE COMPOUND COMPOSITIONS, METHODS OF USE AND TREATMENT THEREOF” (University of South Florida, priority 2014, published 2017)
Converted amounts (≈) assume the structure as drawn. Like-named read-outs stand apart in the source and are kept apart here.

Key:
Enterococcus faecium [1] = assay: Minimal bactericidal concentration (MBC) assay; assay type: cell-based; conditions: purified compound, read-out: MBC90
Experimental: (§1) Briefly, compound was washed by centrifugation and serial dilution, before plating on Tryptic Soy Agar (TSA). Plates were incubated for 24 hours at 37° C. and cell viability assessed by determining CFU/ml at each concentration, for every compound. Percent recovery was then determined compared to CFU/ml from no drug controls. All concentrations and controls were tested using three biological replicates, alongside two technical replicates for each data point.

Staphylococcus aureus = assay: Minimal bactericidal concentration (MBC) assay; assay type: cell-based; conditions: purified compound, read-out: MBC90
Experimental: as §1

Acinetobacter baumannii = assay: Minimal bactericidal concentration (MBC) assay; assay type: cell-based; conditions: purified compound, read-out: MBC90
Experimental: as §1

Klebsiella pneumoniae = assay: Minimal bactericidal concentration (MBC) assay; assay type: cell-based; conditions: purified compound, read-out: MBC90
Experimental: as §1

Enterobacter cloacae [2] = assay: Minimal bactericidal concentration (MBC) assay; assay type: cell-based; conditions: Enterobacter cloacae; purified compound; read-out: MBC90
Experimental: as §1

Pseudomonas aeruginosa [3] = assay: Minimal bactericidal concentration (MBC) assay; assay type: cell-based; conditions: Pseudomonas aeruginosa; purified compound; read-out: MBC90
Experimental: as §1

K. pneumoniae = assay: Resistance serial passage assay; assay type: cell-based, Klebsiella pneumoniae; conditions: 8 passages, concentration doubled each day
Experimental: (§2) ESKAPE pathogens were grown overnight in liquid media at 37° C. These cultures were then diluted 1:100 in fresh media, and seeded into a 96-well plate. Lead bis-cyclic guanidines or control agents were added to respective wells at half MIC concentrations. Plates were then incubated for 24 hours at 37° C., with bacteria removed from these cultures on the following day, to inoculate fresh media (1:100 dilution) containing compounds at a 2-fold higher concentrations. These were then grown overnight, and the procedure repeated for a total of eight days. […] Each experiment was performed in triplicate, yielding identical results.

Pseudomonas aeruginosa [4] = assay: MIC micro broth dilution assay; assay type: cell-based; conditions: for MIC: Pseudomonas aeruginosa
Experimental: For this study we used a representative panel of multi-drug resistant clinical ESKAPE pathogen isolates (Supplemental Table S6).^42 43 3a, 44 45 Gram-positive organisms were grown in tryptic soy broth media (TSB), whilst Gram-negative organisms were grown in lysogeny Broth (LB), as described by us previously. ^43 MIC and MBC determination assays.
Broth cultures of ESKAPE strains were grown overnight before being diluted 1 in 1,000 in fresh media. Sterile 96-well plates were loaded with culture and compounds (in DMF) were added at decreasing concentrations to equal a total volume of 200 μl per well. Care was taken to not add more than 2.0% DMF to any well. Plates were then incubated at 37° C., and MICs determined after 24 hours by visual inspection for a lack of turbidity in wells. All assays were performed in triplicate with identical results obtained. For both the scaffold ranking and positional scanning samples, relative broad-spectrum activity was determined via stacked scores: […]

[5] = tested on: Staphylococcus aureus (USA300 strain FPR3757); assay: Murine model of lethal peritonitis; assay type: in vivo, mice; conditions: 2× MIC, I.M., 1 h post-infection, six mice per group
Experimental: Using MRSA as a representative ESKAPE organism, we infected mice with 1×10^8 bacterial cells in 5% mucin via intraperitoneal injection. At 1 h post-infection, mice were then I.V. injected with either vancomycin (positive control), or I.M. with our front runner compounds.
Six mice per group were injected with 1×10^8 CFU ml^−1 of Staphylococcus aureus (USA300 strain FPR3757) in PBS containing 5% mucin. […] Mice were monitored twice daily for five days to assess mortality. The clinical endpoint of this study was when the mice reached a pre-moribund state. Characteristics of pre-moribund state include: hunched posture, rapid, shallow and/or labored breathing, ruffled fur, lethargy, failure to respond to stimuli, soiled anogenital area, paralysis, paresis, head tilt, circling, vocalizations, non-purposeful movements and/or were unable to eat or drink. Those mice reaching this state prior to the completion of the 5 day infection period were euthanized. The number of mice surviving between control and treatment groups was compared and analyzed for statistical significance using a log rank test.

Enterococcus faecium [6] = assay: MIC micro broth dilution assay; assay type: cell-based; conditions: for MIC: Enterococcus faecium
In short: (§3)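 Strains were multidrug-resistant clinical isolates grown in LB (Gram-negative) or TSB (Gram-positive), diluted 1:1,000 before compound addition.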

Enterobacter cloacae [7] = assay: MIC micro broth dilution assay; assay type: cell-based; conditions: for MIC: Enterobacter cloacae
In short: as §3

E. cloacae = assay type: cell-based, Enterobacter cloacae; conditions: 8 passages, concentration doubled each day
Experimental: ESKAPE pathogens were grown overnight in liquid media at 37° C. These cultures were then diluted 1:100 in fresh media, and seeded into a 96-well plate. Lead bis-cyclic guanidines or control agents were added to respective wells at half MIC concentrations. […] These were then grown overnight, and the procedure repeated for a total of eight days.

S. aureus = assay: Resistance serial passage assay; assay type: cell-based, Staphylococcus aureus; conditions: 8 passages, concentration doubled each day
Experimental: as §2

Question: `CCCCCCCN1C(=N)N(CCCC[C@H]2CNC(=N)N2CCc2cccc(C(F)(F)F)c2)C[C@@H]1CC1CCCCC1` [Compound 7] was tested. Which MBC (Enterococcus faecium [1]; Enterococcus faecium) did it give?
Answer: 2.16 to 3.28 µM (≈ 1.28 to 1.94 µg/mL)

Question: What about the MBC (Enterococcus faecium [1]) of the same compound?
Answer: 3.27 µM (≈ 1.93 µg/mL)

Question: What about the MBC (Staphylococcus aureus; Staphylococcus aureus) of the same compound?
Answer: 2.16 to 3.28 µM (≈ 1.28 to 1.94 µg/mL)

Question: What about the MBC (Staphylococcus aureus) of the same compound?
Answer: 3.28 µM (≈ 1.94 µg/mL)

Question: And the MBC (Acinetobacter baumannii; Acinetobacter baumannii)?
Answer: 2.16 to 3.28 µM (≈ 1.28 to 1.94 µg/mL)

Question: And the MBC (Acinetobacter baumannii)?
Answer: 3.23 µM (≈ 1.91 µg/mL)

Question: What about the MBC (Klebsiella pneumoniae; Klebsiella pneumoniae) of the same compound?
Answer: 2.16 to 3.28 µM (≈ 1.28 to 1.94 µg/mL)

Question: And the MBC (Klebsiella pneumoniae)?
Answer: 2.16 µM (≈ 1.28 µg/mL)

Question: And the MBC (Enterobacter cloacae [2])?
Answer: 6.36 µM (≈ 3.76 µg/mL)

Question: And the MBC (Pseudomonas aeruginosa [3])?
Answer: 13.7 µM (≈ 8.12 µg/mL)

Question: And the “increase in MIC after serial passage” value (K. pneumoniae)?
Answer: 8 fold

Question: What about the MIC (Pseudomonas aeruginosa [4]; P. aeruginosa isolate 1414) of the same compound?
Answer: 3 µM (≈ 1.77 µg/mL)

Question: And the MIC (Pseudomonas aeruginosa [4]; P. aeruginosa isolate 1415)?
Answer: 3 µM (≈ 1.77 µg/mL)

Question: And the MIC (Pseudomonas aeruginosa [4]; P. aeruginosa isolate 1416)?
Answer: 2 µM (≈ 1.18 µg/mL)

Question: And the MIC (Pseudomonas aeruginosa [4]; P. aeruginosa isolate 1417)?
Answer: 3 µM (≈ 1.77 µg/mL)

Question: What about the MIC (Pseudomonas aeruginosa [4]; P. aeruginosa isolate 1418) of the same compound?
Answer: 7 µM (≈ 4.14 µg/mL)

Question: What about the MIC (Pseudomonas aeruginosa [4]; P. aeruginosa isolate 1419) of the same compound?
Answer: 3 µM (≈ 1.77 µg/mL)

Question: And the MIC (Pseudomonas aeruginosa [4]; P. aeruginosa isolate 1420)?
Answer: 5 µM (≈ 2.95 µg/mL)

Question: What about the MIC (Pseudomonas aeruginosa [4]; P. aeruginosa isolate 1421) of the same compound?
Answer: 2 µM (≈ 1.18 µg/mL)

Question: What about the MIC (Pseudomonas aeruginosa [4]; P. aeruginosa isolate 1422) of the same compound?
Answer: 5 µM (≈ 2.95 µg/mL)

Question: And the MIC (Pseudomonas aeruginosa [4]; P. aeruginosa isolate 1423)?
Answer: 2 µM (≈ 1.18 µg/mL)

Question: And the MIC (Pseudomonas aeruginosa [4]; purified compound, Table 1)?
Answer: 1.52 µM (≈ 0.898 µg/mL)

Question: What about the “concentration inhibiting 90% of isolates” value (Pseudomonas aeruginosa [4]; panel of P. aeruginosa clinical isolates) of the same compound?
Answer: 10 µM

Question: And the “survival of infected mice over 5 day infection period” value [5]?
Answer: 1 mouse lost on each of days 2 and 4

Question: And the “stacked score activity, 100/MIC, E” value (Enterococcus faecium [6]; E. faecium)?
Answer: 33

Question: And the MIC (Enterococcus faecium [6]; E. faecium isolate 1406)?
Answer: 2 µM (≈ 1.18 µg/mL)

Question: What about the MIC (Enterococcus faecium [6]; E. faecium isolate 1407) of the same compound?
Answer: 2 µM (≈ 1.18 µg/mL)

Question: What about the MIC (Enterococcus faecium [6]; E. faecium isolate 1432) of the same compound?
Answer: 2 µM (≈ 1.18 µg/mL)

Question: What about the MIC (Enterococcus faecium [6]; E. faecium isolate 1438) of the same compound?
Answer: 2 µM (≈ 1.18 µg/mL)

Question: And the MIC (Enterococcus faecium [6]; E. faecium isolate 1439)?
Answer: 2 µM (≈ 1.18 µg/mL)

Question: And the MIC (Enterococcus faecium [6]; E. faecium isolate 1443)?
Answer: 2 µM (≈ 1.18 µg/mL)

Question: And the MIC (Enterococcus faecium [6]; E. faecium isolate 1444)?
Answer: 2 µM (≈ 1.18 µg/mL)

Question: And the MIC (Enterococcus faecium [6]; E. faecium isolate 1449)?
Answer: 2 µM (≈ 1.18 µg/mL)

Question: And the MIC (Enterococcus faecium [6]; E. faecium isolate 1450)?
Answer: 2 µM (≈ 1.18 µg/mL)

Question: And the MIC (Enterococcus faecium [6]; E. faecium isolate 1451)?
Answer: 2 µM (≈ 1.18 µg/mL)

Question: And the MIC (Enterococcus faecium [6]; purified compound, Table 1)?
Answer: 1.52 µM (≈ 0.898 µg/mL)

Question: What about the “stacked score activity, 100/MIC, E” value (Enterobacter cloacae [7]; E. cloacae) of the same compound?
Answer: 20

Question: And the MIC (Enterobacter cloacae [7]; E. cloacae isolate 1404)?
Answer: 2 µM (≈ 1.18 µg/mL)

Question: What about the MIC (Enterobacter cloacae [7]; E. cloacae isolate 1405) of the same compound?
Answer: 2 µM (≈ 1.18 µg/mL)

Question: What about the MIC (Enterobacter cloacae [7]; E. cloacae isolate 1430) of the same compound?
Answer: 2 µM (≈ 1.18 µg/mL)

Question: What about the MIC (Enterobacter cloacae [7]; E. cloacae isolate 1431) of the same compound?
Answer: 2 µM (≈ 1.18 µg/mL)

Question: What about the MIC (Enterobacter cloacae [7]; E. cloacae isolate 1445) of the same compound?
Answer: 2 µM (≈ 1.18 µg/mL)

Question: And the MIC (Enterobacter cloacae [7]; E. cloacae isolate 1446)?
Answer: 5 µM (≈ 2.95 µg/mL)

Question: What about the MIC (Enterobacter cloacae [7]; E. cloacae isolate 1447) of the same compound?
Answer: 2 µM (≈ 1.18 µg/mL)

Question: And the MIC (Enterobacter cloacae [7]; E. cloacae isolate 1448)?
Answer: 2 µM (≈ 1.18 µg/mL)

Question: And the MIC (Enterobacter cloacae [7]; E. cloacae isolate 1454)?
Answer: 2 µM (≈ 1.18 µg/mL)

Question: And the MIC (Enterobacter cloacae [7]; E. cloacae isolate 1455)?
Answer: 2 µM (≈ 1.18 µg/mL)

Question: And the MIC (Enterobacter cloacae [7]; purified compound, Table 1)?
Answer: 1.52 µM (≈ 0.898 µg/mL)

Question: And the “concentration inhibiting 90% of isolates” value (Enterobacter cloacae [7]; panel of E. cloacae clinical isolates)?
Answer: 2 µM

Question: And the “increase in MIC after serial passage” value (E. cloacae)?
Answer: 8 fold

Question: What about the “increase in MIC after serial passage” value (S. aureus) of the same compound?
Answer: four-fold
